# Assay results reported in US20150216820A1, “QUINONE DERIVATIVES FOR USE IN THE MODULATION OF REDOX STATUS OF INDIVIDUALS” (Edison Pharmaceuticals, Inc., priority 2012, published 2015).
# Entries after “also recorded” stand apart in the source; their conditions may differ.
# Legend:
# [1] = system: children with genetically-confirmed Leigh syndrome; experiment: Phase 2 single arm subject-controlled trial in children with Leigh syndrome: clinical outcome scales (NPMDS, GMFM, PedsQL, MD-CRS); type: in vivo, human
# [2] = system: intracellular (lymphocyte) glutathione; experiment: HPLC determination of lymphocyte glutathione forms (GSH, GS-Pro, GSSG) in treated Leigh syndrome patients; type: in vivo, human
# Procedure: The determination of the different forms of GSH obtained from lymphocytes can be performed in a manner similar to the method previously reported by Pastore et al. (Clin. Chem. (Washington, D.C.) 44, 825-832 (1998)). Briefly, 30 μl of 4 M NaBH4, 20 μl of 2 mM EDTA/DTT, 10 μl of 1-octanol and 20 μl of 1.8 M HCl are placed in the derivatization vial containing 30 μl of sample. After the mixture is incubated for three min, 100 μl of 1.5 M N-ethylmorpholine buffer, pH 8.0, 400 μl of distilled water, and 20 μl of 25 mM bromobimane are added. After an additional three-min incubation, 40 μl of acetic acid are added and 20 μl (for free GSH) or 80 μl (for GSSG and GS-Pro) of this mixture are injected into the column. The thiol derivatives are quantified by HPLC (Agilent Technologies 1100 HPLC with a fluorescence detector-excitation at 390 nm and an emission at 478 nm). The analytes are separated for detection using a C18 column (Hypersil ODS; 150×4.6 mm, 3 micron) at 1.5 ml/min using an aqueous phase of aqueous 30 mM ammonium nitrate and 40 mM ammonium formate at pH 3.6 with an increasing acetonitrile gradient. HPLC determinations of the various forms of GSH are carried out on lymphocytes sonicated three times for two sec in 0.1 ml of 0.1 M potassium-phosphate buffer, pH 7.2 using a Model VC 130 Vibra Cell™ ultrasonic processor. For free GSH determinations, 100 μl of 12% sulfosalicylic acid are added to 50 μl of cells lysate, and analytes content on the acid-soluble fraction are determined. The protein pellet is dissolved in 150 μl of 0.1 N NaOH, and protein bound glutathione (GS-Pro) determined. For GSSG determination, cells are sonicated in the presence of 5 mM N-ethylmaleimide (NEM); 100 μl of 12% sulfosalicylic acid are added to 50 μl homogenates, and analytes content on the acid-soluble fraction are determined. Protein concentrations are quantified by BCA-protein assay.
# (§1) Intracellular reduced glutathione (GSH) serves as the cell's principal endogenous antioxidant. Leigh syndrome and other mitochondrial diseases are associated with decreased GSH levels as the high level of oxidative stress and free oxygen radicals deplete cellular GSH reserves. In order to verify alpha-tocotrienol quinone mechanism of action and to correlate this action with clinical benefit, intracellular (lymphocyte) glutathione levels were measured in all patients. The ratio of recued-to-oxidized glutathione and reduced glutathione to total glutathione levels were calculated to assess the effect of alpha-tocotrienol quinone on repleting reduced intracellular glutathione. In addition, total serum thiol levels were measured prior to and following initiation of treatment. Plasma creatine levels—an exploratory biomarker for mitochondrial disease—was also obtained.
# For lymphocytes and erythrocyte isolation from whole blood, venous blood samples were layered on the top of a discontinuous gradient consisting of 3 ml of Hystopaque®-1119 and 3 mL of Hystopaque®-1077. Gradients were centrifuged at 750 g for 40 min at 4° C. The lymphocyte layer was transferred to a 15 ml centrifuge tube, diluted to a volume of 10 ml with 0.9% NaCl and centrifuged at 750 g for 40 min. The supernatant was removed and, if necessary, the lysis of erythrocytes was performed by adding 2 ml H2O. After 90 s, 2 ml of 1.8% NaCl solution was added and cells washed four times with 0.9% NaCl. The pellet of lymphocytes was centrifuged at 750 g for 10 min and stored at −80° C. until HPLC analysis.
# The determination of the different forms of GSH obtained from lymphocytes was performed, with little modification to a method previously reported (Pastore, A., et al. Clin. Chem. (Washington, D.C.) 44, 825-832 (1998)). Briefly, 30 μl of 4 M NaBH4, 20 μl of 2 mM EDTA/DTT, 10 μl of 1-octanol and 20 μl of 1.8 M HCl were placed in the derivatization vial containing 30 μl of sample. […]
# [3] = system: total serum thiol levels; experiment: Total thiols in serum/plasma (DTNB, spectrophotometric); type: in vivo, human; settings: three-month time point; p=0.008
# Procedure: as §1
# Total thiols were determined in plasma following the method reported by M.-L. Hu (Methods Enzymol. 233, 380-385 (1994)). 50 μl plasma was mixed with 1 ml of the Tris-EDTA buffer and the absorbance at 412 nm was measured. Then, 20 μl of 10 mM DTNB were added. After 15 min incubation at room temperature, the absorption at 412 nm (ε=13,600 cm^−1M^−1) was measured together with a DTNB blank.
# [4] = system: plasma creatine; experiment: Plasma creatine levels (exploratory biomarker for mitochondrial disease); type: in vivo, human; settings: p=0.15
# Procedure: as §1
# [5] = system: children with genetically-confirmed Leigh syndrome; experiment: Safety and tolerability in the Leigh syndrome trial; type: in vivo, human
# Procedure: There were three serious adverse events due to intercurrent illness during the three month trial (two cases of bronchitis and one case of salmonellosis, all resolved). […] All recorded values were within the normal range for the clinical laboratories used for the analysis.
# All subjects received 100 mg of alpha-tocotrienol quinone three times daily orally or via gastrostomy tube. Total treatment length was three months, with an extension phase for children who completed the initial treatment period. All adverse and serious adverse events were tracked in the trial database. In addition, all held doses due to intolerance of alpha-tocotrienol quinone or any other reason were also recorded.
# [6] = system: Leigh syndrome (SURF1) primary cells; experiment: In vitro protection of patient primary cells against glutathione depletion-mediated apoptotic cell death; type: cell-based, human
# Procedure: (§2) The initial clinical dose was selected based on laboratory and human patient pharmacokinetic modeling data. Specifically, a three-compartment model for oral administration was employed that included GI absorption delay, as well as one central and one peripheral compartment. A plasma trough drug concentration was targeted 10-20 fold above the ˜10 nM in vitro EC50 value of alpha-tocotrienol quinone that protected Leigh syndrome (SURF1) primary cells against glutathione depletion-mediated apoptotic cell death. Based on serum values of alpha-tocotrienol quinone obtained in two Leigh syndrome subjects after a single 100 mg dose of alpha-tocotrienol quinone was administered, a clinical dose of 100 mg three times daily was calculated and selected as the initial dose. […] This was consistent with the in vitro target dose and was confirmed in multiple pediatric subjects with inherited mitochondrial disease (Enns, G. M., et al., Mol. Genet. Metab. 105, 91-102 (2012); Blankenberg, F., et al., Ann. Neurol. 70, S148-S148 (2011)). This dose was also safely below the preclinical no observed adverse effect level (NOAEL).
# [7] = Plasma trough drug concentration in Leigh syndrome subjects; type: in vivo; settings: 100 mg three times daily, eight hours post dosing
# Procedure: as §2
# [8] = three months, 100 mg orally three times daily, p=0.01
# [9] = LS patients after six-months treatment, n = 10
smiles,measurement,setting,value
CC(C)=CCC/C(C)=C/CC/C(C)=C/CC[C@@](C)(O)CCC1=C(C)C(=O)C(C)=C(C)C1=O [alpha-tocotrienol quinone],clinical disease progression,"[1]; all children, three months, regardless of age, genotype, severity",arrest of disease progression and reversal
same,"NPMDS score, patient 1, earlier value","[1]; patient 1, before continued treatment to six months",23.5
same,"NPMDS score, patient 1, later value","[1]; patient 1, treated for six months",21.1
same,"GMFM score, patient 2","[1]; patient 2, at six months, increased from 7.6",19.8
same,"NPMDS score, patient 2, earlier value","[1]; patient 2, before continued treatment to six months",54
same,"change in GMFM score, patient 2","[1]; patient 2, following three months of treatment",no change
same,"NPMDS score, patient 2, later value","[1]; patient 2, treated for six months",46
same,"NPMDS score, patient 3, earlier value","[1]; patient 3, before continued treatment to six months",27.8
same,"NPMDS score, patient 3, later value","[1]; patient 3, treated for six months",25.7
same,"change in GMFM score, patient 7","[1]; patient 7, score 97.5 prior to treatment (maximum 100)",did not change
same,"clinical outcomes (NPMDS, neuromuscular function, health related quality of life, dystonia and spasticity), FIG. 1",[1]; prior to vs following three months of treatment,significant improvement
same,average improvement in total NPMDS score from baseline,[1]; three months,25%
same,"NPMDS sections 1-3 (organ system function), mean improvement","[1]; three months, 100 mg orally three times daily, p=0.005",7.1
same,"GMFM, mean improvement",[1]; [8],8.9
same,"NPMDS section 4 (quality of life), average improvement",[1]; [8],4.6
same,"PedsQL Neuromuscular Module, mean improvement","[1]; three months, 100 mg orally three times daily, p=0.03",14.6
same,"Movement Disorder-Childhood Rating Scale (MD-CRS), improvement in each child","[1]; three months, secondary endpoint",one class
same,time to clinical response,[1]; universal and durable,within eight weeks
same,"GS-Pro, lymphocytes, median",[2]; [9],0.57 nmol/mg proteins
same,"GSH, lymphocytes, median",[2]; [9],28.92 nmol/mg proteins
same,"GSSG, lymphocytes, median",[2]; [9],1.47 nmol/mg proteins
same,"Tot GSH, lymphocytes, median",[2]; [9],32.47 nmol/mg proteins
same,"overall glutathione charge (GSSG/GSH and GSSG/total glutathione ratios), FIG. 2","[2]; all patients, over treatment time",rapid normalization
same,oxidized-to-reduced glutathione levels after treatment,"[2]; decrease from baseline ratio mean 3.1+/-2.1, p=0.005",0.25
same,time to changes in reduced glutathione levels and oxidized-to-reduced glutathione ratios,[2]; in most of the patients,≤ 4 weeks
same,time to biochemical response (glutathione charge),"[2]; in several subjects, preceding clinical response",within two weeks
same,reduced glutathione in isolated lymphocytes after treatment,"[2]; increase from 8.5 at baseline, p=0.002",25.1 nmol/mg cell protein
same,oxidized glutathione after treatment,"[2]; reduction, p=0.005",0.25 nmol/mg cell protein
same,"total serum thiol levels, mean change",[3],0.14
same,"plasma creatine, overall average decrease",[4],20.2 points
same,clinical chemistry laboratory parameters incl. liver and kidney function tests and coagulation parameters,[5]; three month trial,no abnormalities
same,other reported adverse conditions,[5]; three month trial,mild sleepiness and hypotonia
same,serious adverse events due to intercurrent illness,"[5]; three month trial, two bronchitis, one salmonellosis, all resolved",three
same,drug related adverse events,"[5]; three months, 100 mg three times daily",No drug related adverse events; also recorded: not associated with any drug-induced adverse events
same,EC50,[6],~0.01 µM
same,average trough concentration,[7],~200 nM
